{
  "source": "patent US20160115540A1",
  "about": "“PRODRUGS AND DRUGS” (Biogen MA Inc., priority 2013, published 2016)",
  "test_system": "cerebellum",
  "test": "Transcriptional profiling on Affymetrix GeneChips, single dose, naïve mice: cerebellum",
  "assay_type": "in vivo, C57BL/6 mice",
  "conditions": "for Number of differentially expressed genes identified: Cerebellum: Naïve, Single Dose",
  "protocol": "In vivo, DMF is rapidly metabolized to monomethyl fumarate (MMF).\nAnimals were exposed to CO2 and whole blood collected via cardiac puncture. Two 100 μl aliquots of whole blood were collected in 1.5 mL microcentrifuge tubes and snap frozen in liquid nitrogen. Peripheral (liver, spleen, kidney and jejunum) and CNS brain (cerebellum, hippocampus, striatum and cortex) tissues were harvested and snap frozen in liquid nitrogen, with special care taken to collect tissues of similar size and from the same location. All samples were stored at −80° C. until RNA extraction was conducted.\nFor RNA preparation, frozen tissues were placed in 2 mL RNAse-free 96-well blocks with 1.5 mL QIAzol Lysis Reagent (QIAgen) and a 3.2 mm stainless steel bead (BioSpec Products, Bartlesville, Okla.). Tissues were disrupted for four cycles of 45 seconds in a Mini-Beadbeater (Biospec Products). RNA was extracted in chloroform and the aqueous phase was mixed with an equal volume of 70% ethanol. Extracted RNA was applied to RNeasy 96 plates and purified by the spin method according to the manufacturer's protocol (RNeasy 96 Universal Tissue Protocol, QIAgen, Hilden Germany).\nAutomated sample amplifications and biotin labelings were carried out using the NuGEN Ovation RNA Amplification system V2 (Cat #3100), Ovation WB reagent (Cat #1300) and Encore Biotin module (Cat #4200) (NuGEN Technologies, Inc, San Carlos, Calif.) according to manufacturer's recommendations using an Arrayplex automated liquid handler (Beckman Coulter, Indianapolis, Ind.). Two micrograms of biotin labeled sscDNA probe were hybridized to Affymetrix GeneChip Affymetrix HT_MG-430_PM plate arrays with modified conditions as described in Allaire et al. Washing and staining of the hybridized arrays were completed as described in the GeneChip Expression analysis technical manual for HT plate arrays using the Genechip® Array Station (Affymetrix, Santa Clara, Calif.) with modifications as described in Allaire et al. The processed GeneChip® plate arrays were scanned using GeneTitan scanner (Affymetrix, Santa Clara, Calif.).\nAffymetrix scans were subject to quality control (QC) measures. These tests included a visual inspection of the distribution of raw signal intensities and an assessment of RNA degradation, relative log expression (RLE), and normalized unsealed standard error (NUSE). All sample scans that passed these QC metrics were included in the analysis.\nAll CEL files were subjected to GC-content-based Robust Multi-array Average (GCRMA) normalization (version 2.20.0) (Irizarry R A, et al. Nucleic Acids Res 2003; 31:e15; Li C, et al. Genome Biol 2001; 2:[…]0032). Expression levels were log (base 2) transformed.\nAll calculations and analyses were carried out using R (version 2.11.1) and Bioconductor computational tools (Gentleman R. Springer Science+Business Media 2005).",
  "key": {"[1]": {"conditions": "100 mpk, vs Vehicle, 2 h after last dosing"}, "[2]": {"conditions": "100 mpk, vs Vehicle, 7 h after last dosing"}, "[3]": {"conditions": "100 mpk, vs Vehicle, 12 h after last dosing"}, "[4]": {"conditions": "cerebellum, 100MMF-vs-Veh, 12 h"}},
  "note": "Structures can show the parent of a compound that is named as a salt.",
  "data": [
    {"smiles": "COC(=O)/C=C/C(=O)OC", "note": "[DMF, dimethyl fumarate]", "values": [
      {"measurement": "Number of differentially expressed genes identified: Cerebellum", "setting": "100 mpk DMF-vs-100 mpk MMF, 2 h after last dosing", "result": 0},
      {"measurement": "Number of differentially expressed genes identified: Cerebellum", "setting": "100 mpk DMF-vs-100 mpk MMF, 7 h after last dosing", "result": 0},
      {"measurement": "Number of differentially expressed genes identified: Cerebellum", "setting": "100 mpk DMF-vs-100 mpk MMF, 12 h after last dosing", "result": 0},
      {"measurement": "Number of differentially expressed genes identified: Cerebellum", "setting": "[1]", "result": 0},
      {"measurement": "Number of differentially expressed genes identified: Cerebellum", "setting": "[2]", "result": 0},
      {"measurement": "Number of differentially expressed genes identified: Cerebellum", "setting": "[3]", "result": 0},
      {"measurement": "differentially expressed genes", "setting": "cerebellum, 100DMF-vs-100MMF, 2 h", "result": "None"},
      {"measurement": "differentially expressed genes", "setting": "cerebellum, 100DMF-vs-100MMF, 7 h", "result": "None"},
      {"measurement": "differentially expressed genes", "setting": "cerebellum, 100DMF-vs-100MMF, 12 h", "result": "None"},
      {"measurement": "differentially expressed genes", "setting": "cerebellum, 100DMF-vs-Veh, 2 h", "result": "None"},
      {"measurement": "differentially expressed genes", "setting": "cerebellum, 100DMF-vs-Veh, 7 h", "result": "None"},
      {"measurement": "differentially expressed genes", "setting": "cerebellum, 100DMF-vs-Veh, 12 h", "result": "None"}
    ]},
    {"smiles": "COC(=O)/C=C/C(=O)O", "note": "[MMF, monomethyl fumarate]", "values": [
      {"measurement": "Number of differentially expressed genes identified: Cerebellum", "setting": "[1]", "result": 2},
      {"measurement": "Number of differentially expressed genes identified: Cerebellum", "setting": "[2]", "result": 0},
      {"measurement": "Number of differentially expressed genes identified: Cerebellum", "setting": "[3]", "result": 3},
      {"measurement": "FC Csnk2a1 (1419034_PM_at)", "setting": "cerebellum, 100MMF-vs-Veh, 2 h", "result": "−1.65"},
      {"measurement": "FC Trak2 (1429607_PM_at)", "setting": "cerebellum, 100MMF-vs-Veh, 2 h", "result": "−1.55"},
      {"measurement": "FC Hif3a (1425428_PM_at)", "setting": "[4]", "result": 1.58},
      {"measurement": "FC Pnpla7 (1451361_PM_a_at)", "setting": "[4]", "result": 1.52},
      {"measurement": "FC Vnn1 (1447845_PM_s_at)", "setting": "[4]", "result": 1.83}
    ]}
  ]
}
